From patent US20070243217A1, “Film-Shaped Medicament for Oral Administration Containing Estriol” (HF Arzneimittelforschung GmbH, priority 2004, published 2007)

Assays:
[1] = Estriol levels in the blood over time with the same treatment and dose; assay type: in vivo; settings: vaginal application
Method: Thus, even in the case of long-term use, there should be no unwanted absorption conditions at the oral mucosa as the application site that show a change for the worse, provided that the treatment of the climacteric complaints is carried out using a film-shaped medicament according to the invention.

[2] = Changes of the oral mucosa on buccal or sublingual administration of estriol; assay type: in vivo

C[C@]12CC[C@@H]3c4ccc(O)cc4CC[C@H]3[C@@H]1C[C@@H](O)[C@@H]2O [estriol, (16α, 17β)-estra-1,3,5(10)-triene-3,16,17-triol]
estriol levels in the blood after some time [1]: drop measurably after some time | changes of the oral mucosa analogous to proliferation and hornification of the upper cell layers in the vagina [2]: no changes of the oral mucosa
